Legend:
[1] = tested on: secreted adiponectin; test: Measurement of amount of secreted adiponectin in 3T3-L1 adipocyte culture supernatant by Western blotting; type: cell-based; settings: 3T3-L1 adipocytes culture supernatant, test compound 10 μM, 48 hours then 24 hours after replacing the medium; densitometer
Method: (§1) Preadipocyte cell line 3T3-L1 was purchased from the American Type Culture Collection (ATCC). […] Subsequently, the medium was replaced with fresh growth medium every 3 days, and the 3T3-L1 adipocytes were prepared on day 10 after the start of differentiation. Test compounds that were poorly soluble in water were used after dissolving in DMSO. Test compounds that were easily soluble in water were dissolved in sterile water followed by addition of the same amount of DMSO as that used for the aforementioned poorly water-soluble test compounds. In addition, in the case of test compounds that are poorly soluble in water, the test compound may be dissolved in ethanol and used following the addition of 0.1 N aqueous sodium hydroxide solution after shaking as necessary. After allowing the 3T3-L1 cells to adequately differentiate into adipocytes, a test compound was added to the medium to a final concentration of 10 μM followed by culturing the cells for 48 hours. The cells were additionally cultured for 24 hours after replacing the medium. […] Secretion of adiponectin into culture supernatant was detected by Western blotting. […] After washing the PVDF membrane, the adiponectin bands were detected using ECL Detection Reagents (Amersham-Pharmacia). The bands were quantified with a densitometer (Molecular Devices). The amounts of secreted adiponectin were analyzed by Western blotting.

[2] = tested on: adiponectin mRNA; test: Measurement of adiponectin mRNA by quantitative RT-PCR in 3T3-L1 adipocytes; type: cell-based; settings: test compound 10 μM, 48 hours then 24 hours after replacing the medium, 36B4 internal control
Method: as §1, with “The synthesized cDNA was amplified using FastStrand DNA Master SYBR Green I (Roche Diagnostics), and the amplified PCR product” for “Secretion of adiponectin into culture supernatant”, “with LightCycler (Roche Diagnostics).” for “by Western blotting.”, “The” for “After washing the PVDF membrane, the”, “mRNA amount was measured according to quantitative RT-PCR.” for “bands were detected using ECL Detection Reagents (Amersham-Pharmacia). The bands were quantified with a densitometer (Molecular Devices). The amounts of secreted adiponectin were analyzed by Western blotting.”

[3] = tested on: C57BL/6J mice; test: Administration of pravastatin to mice in feed: blood glucose levels and adiponectin concentrations; type: in vivo; settings: 0.06% (wt/wt) in feed for 15 weeks
Method: The body weights of the animals were measured and blood samples were collected on the day the test started, and the animals were divided into two groups of 5 animals per cage based on their body weights and blood glucose levels. […] Blood samples were collected from the tail vein in an amount equal to one heparinized capillary tube.
The amount of feed and general behaviour were checked at least once a day.
Blood glucose levels were measured on the days when blood samples were collected.

[4] = tested on: C57BL/6J mice; test: Insulin tolerance test using pravastatin-dosed mice; type: in vivo; settings: C57BL/6J mice dosed in feed for 15 weeks, fasted 2 hours, insulin 0.5 u/kg intraperitoneally; significantly lower than non-dose group (148 mg/dl)
Method: A group administered with pravastatin by mixing in feed for 15 weeks and a non-dosed group of C57BL/6J mice (n=5) were fasted for 2 hours. After measuring the body weight of each animal, insulin (Humalin, Lilly) was administered intraperitoneally at 0.5 u/kg, and blood samples were collected from the tail vein immediately before the start of administration and at 15, 30, 60 and 90 minutes after the start of administration followed by measurement of blood glucose levels.

[5] = tested on: C57BL/6J mouse adipocytes; test: Glucose uptake test using isolated adipocytes from pravastatin-dosed mice; type: in vivo
Method: (i) Epididymal adipose tissue was excised from a group administered with pravastatin for 16 weeks and a non-dosed group of C57BL/6J mice (n=5). The excised adipose tissue was handled under conditions of 37° C. at all times. The adipose tissue was cut into small pieces with a scissors, followed by the addition of medium (DMEM, 1 mM sodium pyruvate, 25 mM HEPES pH 7.4, 0.1% BSA, 100 u/ml penicillin, 0.1 mg/ml streptomycin) containing 1 mg/ml of collagenase I (Worshington), and shaking at 37° C. and 80 rpm. Following the reaction, 2.5 volumes of the aforementioned medium were added, the adipocytes were screened out by passing the cell suspension through a 260 μm mesh sieve, and again passed through a 100 μm mesh sieve to prepare an adipocyte suspension. […] Subsequently, 0.6 μCi of ^3H-labeled 2-deoxyglucose was added and allowed to react for 30 minutes. Following the reaction, the cell suspension was immediately transferred to a centrifuge tube containing silicone oil and centrifuged. After cutting out the oil layer of the upper layer containing adipocytes with a knife, it was transferred to a glass vial containing 4 ml of Hionic Fluor (Perkin-Elmer) liquid scintillation counter cocktail followed by measurement of specific radioactivity. The amount of measured radioactivity of the ^3H-2-deoxyglucose was used as an indicator of the amount of glucose taken up by the cells. (4) Results

SMILES	amount of secreted adiponectin relative to the control group [1] [times]	amount of adiponectin mRNA relative to the control group [2] [times]	blood glucose levels, dose group versus non-dose group [3]	adiponectin concentrations in dose group relative to non-dose group ([3]; blood) [times]	blood glucose level at 60 minutes after administration of insulin [4] [mg/dL]	insulin sensitivity versus non-dose group ([5]; adipocytes isolated from C57BL/6J mice dosed for 16 weeks)	amount of glucose uptake relative to non-dose group ([5]; epididymal adipocytes isolated from C57BL/6J mice dosed for 16 weeks, insulin-induced 3H-2-deoxyglucose uptake) [times]
CC(C)c1nc(N(C)S(C)(=O)=O)nc(-c2ccc(F)cc2)c1/C=C/[C@@H](O)C[C@@H](O)CC(=O)O [rosuvastatin, (+)-(3R,5S)-7-[4-(4-fluorophenyl)-6-isopropyl-2-(N-methyl-N-methanesulfonylamino)pyrimidin-5-yl]-3,5-dihydroxy-6(E)-heptenoic acid]	1.6	1.3					
CC[C@H](C)C(=O)O[C@H]1C[C@H](O)C=C2C=C[C@H](C)[C@H](CC[C@@H](O)C[C@@H](O)CC(=O)O)[C@H]21 [pravastatin, (+)-(3R,5R)-3,5-dihydroxy-7-[(1S,2S,6S,8S,8aR)-6-hydroxy-2-methyl-8-[(S)-2-methylbutyryloxy]-1,2,6,7,8,8a-hexahydro-1-naphthyl]heptanoic acid]	1.7	1.6	no significant differences	1.28	110	increased insulin sensitivity	1.4
